Measurements taken from PubChem BioAssay AID1963868 (Molecular Pharmacology Branch, DTP, NCI, 2024).

Test system: KRAS PDC tumor spheroids (HUVEC+MSC), viability
Experiment: Anticancer human tumor 254851-301-R-J1-PDC patient-derived colon carcinoma cell line growth inhibition [KRAS2]
Settings: for IC50: curve of first compound; for viability, T/C: stronger effect = lower value
Procedure, shortened: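 KRAS-mutant tumor cells were grown as spheroids with HUVEC endothelial cells and human MSCs as stroma. Targeted agents were tested alone and with KRAS pathway inhibitors. Doses started at or near clinical Cmax, or 10 microM, descending half-log.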

[1] = second compound 0.1 µM, first compound 0.0316 µM
[2] = second compound 0.1 µM, first compound 0.1 µM
[3] = second compound 0.1 µM, first compound 0.316 µM
[4] = second compound 0.1 µM, first compound 1 µM
[5] = second compound 0.1 µM, first compound 3.16 µM
[6] = second compound 0.1 µM, first compound 10 µM
[7] = second compound 0.316 µM, first compound 0.0316 µM
[8] = second compound 0.316 µM, first compound 0.1 µM
[9] = second compound 0.316 µM, first compound 0.316 µM
[10] = second compound 0.316 µM, first compound 1 µM
[11] = second compound 0.316 µM, first compound 3.16 µM
[12] = second compound 0.316 µM, first compound 10 µM
[13] = second compound 1 µM, first compound 0.0316 µM
[14] = second compound 1 µM, first compound 0.1 µM
[15] = second compound 1 µM, first compound 0.316 µM
[16] = second compound 1 µM, first compound 1 µM
[17] = second compound 1 µM, first compound 3.16 µM
[18] = second compound 1 µM, first compound 10 µM
[19] = second compound 3.16 µM, first compound 0.0316 µM
[20] = second compound 3.16 µM, first compound 0.1 µM
[21] = second compound 3.16 µM, first compound 0.316 µM
[22] = second compound 3.16 µM, first compound 1 µM
[23] = second compound 3.16 µM, first compound 3.16 µM
[24] = second compound 3.16 µM, first compound 10 µM
[25] = second compound 10 µM, first compound 0.0316 µM
[26] = second compound 10 µM, first compound 0.1 µM
[27] = second compound 10 µM, first compound 0.316 µM
[28] = second compound 10 µM, first compound 1 µM
[29] = second compound 10 µM, first compound 3.16 µM
[30] = second compound 10 µM, first compound 10 µM
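Also: spheroids exposed to compounds for seven days before readout.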
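For viability, T/C in this document: 100% = DMSO vehicle control luminescence of the spheroids.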

Structure (SMILES) | IC50 (second compound 0.1 µM) | IC50 (second compound 0.316 µM) | IC50 (second compound 1 µM) | IC50 (second compound 3.16 µM) | IC50 (second compound 10 µM) | viability, T/C [1] | viability, T/C [2] | viability, T/C [3] | viability, T/C [4] | viability, T/C [5] | viability, T/C [6] | viability, T/C [7] | viability, T/C [8] | viability, T/C [9] | viability, T/C [10] | viability, T/C [11] | viability, T/C [12] | viability, T/C [13] | viability, T/C [14] | viability, T/C [15] | other results
CCNC(=O)CC1N=C(c2ccc(Cl)cc2)c2cc(OC)ccc2-n2c(C)nnc21 (stereo not given) + CNCc1ccccc1-c1csc(C(C)Nc2nc(C)nc3cc(OC)c(OC)cc23)c1 | > 10 µM | > 10 µM | > 10 µM | < 0.0316 µM | < 0.0316 µM | 106% | 91.1% | 90.4% | 99.1% | 96% | 78.6% | 103% | 111% | 98.3% | 92.9% | 92.4% | 81.9% | 90.4% | 101% | 92.2% | viability, T/C [16]: 100%; viability, T/C [17]: 92.1%; viability, T/C [18]: 73.8%; viability, T/C [19]: 44.8%; viability, T/C [20]: 43.3%; viability, T/C [21]: 38%; viability, T/C [22]: 31.3%; viability, T/C [23]: 34.4%; viability, T/C [24]: 31%; viability, T/C [25]: 0.08%; viability, T/C [26]: 0.08%; viability, T/C [27]: 0.08%; viability, T/C [28]: 0.08%; viability, T/C [29]: 0.07%; viability, T/C [30]: 0.45%
CC1OCC2(CCN(c3cnc(Sc4ccnc(N)c4Cl)c(N)n3)CC2)C1N (stereo not given) + CNCc1ccccc1-c1csc(C(C)Nc2nc(C)nc3cc(OC)c(OC)cc23)c1 | > 10 µM | > 10 µM | > 10 µM | < 0.0316 µM | < 0.0316 µM | 103% | 97.3% | 88.2% | 76.4% | 78.1% | 74.6% | 92.2% | 90.9% | 90.5% | 81.1% | 82.6% | 75.3% | 91.2% | 88.5% | 86.9% | viability, T/C [16]: 78.7%; viability, T/C [17]: 72.4%; viability, T/C [18]: 67.6%; viability, T/C [19]: 50.8%; viability, T/C [20]: 38.7%; viability, T/C [21]: 52.9%; viability, T/C [22]: 30.8%; viability, T/C [23]: 29.4%; viability, T/C [24]: 25.9%; viability, T/C [25]: 0.09%; viability, T/C [26]: 0.09%; viability, T/C [27]: 0.08%; viability, T/C [28]: 0.09%; viability, T/C [29]: 0.42%; viability, T/C [30]: 0.17%
CC(C)NCC(C(=O)N1CCN(c2ncnc3c2C(C)CC3O)CC1)c1ccc(Cl)cc1 (stereo not given) + COc1cc2nc(C)nc(NC(C)c3cc(N)cc(C(F)(F)F)c3)c2cc1OC1CCOC1 | > 10 µM | > 10 µM | 2.02 µM | 3.16 µM | 0.514 µM | 107% | 99.7% | 99.7% | 91.5% | 39.8% | 75.7% | 101% | 98.2% | 84.3% | 84.1% | 31.1% | 71.4% | 85.2% | 100% | 82.2% | viability, T/C [16]: 78.5%; viability, T/C [17]: 32.2%; viability, T/C [18]: 13.7%; viability, T/C [19]: 85.6%; viability, T/C [20]: 83.2%; viability, T/C [21]: 88.4%; viability, T/C [22]: 44.5%; viability, T/C [23]: 32.5%; viability, T/C [24]: 75.1%; viability, T/C [25]: 75.3%; viability, T/C [26]: 82%; viability, T/C [27]: 56.1%; viability, T/C [28]: 41.2%; viability, T/C [29]: 15.5%; viability, T/C [30]: 29.4%
